Broadly, the EC50 is the concentration that produces a half-maximal response. High values mean a less potent agent, low ones a more potent agent.

This is an account of results in US20180030108A1, “NOVEL VOLTAGE-DEPENDENT ION CHANNEL FUSIONS AND METHOD OF USE THEREOF” (UNIVERSITE DE BORDEAUX, priority 2015, published 2018).

Assay [1] has as its target T1, YFP-hTRPV1-rLuc (Homo sapiens, UniProt Q8NER1).
T1 construct: expressed in transfected cells; host or cells: HEK293T
As to the kind of experiment: Intramolecular YFP-hTRPV1-rLuc BRET probe in HEK293T cells. To be noted: for effect on the CAPS dose response curve: cells pre-incubated with 1 μM inhibitor (FIG. 10); for effect on the capsaicin dose-response curve: pre-incubated 5 minutes before readings, 37° C. (FIG. 6). Format: cell-based.

The next assay deals with YFP-hTRPV3-rLuc (Homo sapiens, UniProt Q8NET8). To be noted: 33° C., kinetic.
The next assay deals with TRPV1-Luc/YFP-CaM (Homo sapiens, UniProt Q8NER1). To be noted: for effect on the CAPS dose response curve: cells pre-incubated with 1 μM inhibitor (FIG. 10).
The target in the next assay is T2, TRPV4-Luc/YFP-CaM (Homo sapiens, UniProt Q9HBA0).
T2 construct: expressed in transfected cells; host or cells: HEK293T
Put plainly: Intermolecular TRPV4-Luc/YFP-CaM BRET test in HEK293T cells. The assay is classed as cell-based. On the procedure: An intermolecular TRPV4 BRET probe where the RLuc was fused to the TRPV4 in C-terminal and YFP was fused to the N-terminus part of Calmodulin. Kinetic (FIG. 14A) and dose response curve (FIG. 14B) of the effect of the TRPV4 agonist GSK1016790A on HEK293T cells expressing the TRPV4-Luc/YFP-CaM constructs were obtained. In FIG. 14A, cells were activated with 1 μM of agonist at the time indicated with an arrow. In FIG. 14B, the test was done in presence (square) or absence of the TRPV inhibitor Ruthenium Red (10 μM).

Assay [2] deals with HEK293T cells transfected with an empty vector. As to the kind of experiment: Intracellular calcium by Fura 2-AM, HEK293T cells transfected with an empty vector. The assay is classed as cell-based, human. To be noted: 1 μM capsaicin, 37° C.
For the next assay, the target named is T3, wild-type TRPV1 (Homo sapiens, UniProt Q8NER1).
T3 construct: expressed in transfected cells; host or cells: HEK293T
Put plainly: Intracellular calcium by Fura 2-AM, HEK293T cells expressing wild-type TRPV1. Format: cell-based. To be noted: 1 μM capsaicin, 37° C.

For assay [3], the target named is T1, YFP-hTRPV1-rLuc. Put plainly: Intracellular calcium by Fura 2-AM, HEK293T cells expressing YFP-hTRPV1-rLuc. Format: cell-based. To be noted: 1 μM capsaicin, 37° C.
Assay [4] deals with TRPV1-Luc (human; Renilla) (UniProt Q8NER1). As to the kind of experiment: intermolecular BRET kinetics in living HEK293T cells co-expressing TRPV1-Luc and YFP-CaM, after capsaicin injection. Background: Bioluminescence resonance energy transfer reports proximity on the nanometre scale.
Where [5] appears, read: HEK293T cells pre-incubated with the antagonist, heated.
Where [6] appears, read: HEK293T cells pre-incubated with the antagonist.
Where [7] appears, read: temperature rise from 25° C. to 42° C.

T1 sequence (Q8NER1 whole entry): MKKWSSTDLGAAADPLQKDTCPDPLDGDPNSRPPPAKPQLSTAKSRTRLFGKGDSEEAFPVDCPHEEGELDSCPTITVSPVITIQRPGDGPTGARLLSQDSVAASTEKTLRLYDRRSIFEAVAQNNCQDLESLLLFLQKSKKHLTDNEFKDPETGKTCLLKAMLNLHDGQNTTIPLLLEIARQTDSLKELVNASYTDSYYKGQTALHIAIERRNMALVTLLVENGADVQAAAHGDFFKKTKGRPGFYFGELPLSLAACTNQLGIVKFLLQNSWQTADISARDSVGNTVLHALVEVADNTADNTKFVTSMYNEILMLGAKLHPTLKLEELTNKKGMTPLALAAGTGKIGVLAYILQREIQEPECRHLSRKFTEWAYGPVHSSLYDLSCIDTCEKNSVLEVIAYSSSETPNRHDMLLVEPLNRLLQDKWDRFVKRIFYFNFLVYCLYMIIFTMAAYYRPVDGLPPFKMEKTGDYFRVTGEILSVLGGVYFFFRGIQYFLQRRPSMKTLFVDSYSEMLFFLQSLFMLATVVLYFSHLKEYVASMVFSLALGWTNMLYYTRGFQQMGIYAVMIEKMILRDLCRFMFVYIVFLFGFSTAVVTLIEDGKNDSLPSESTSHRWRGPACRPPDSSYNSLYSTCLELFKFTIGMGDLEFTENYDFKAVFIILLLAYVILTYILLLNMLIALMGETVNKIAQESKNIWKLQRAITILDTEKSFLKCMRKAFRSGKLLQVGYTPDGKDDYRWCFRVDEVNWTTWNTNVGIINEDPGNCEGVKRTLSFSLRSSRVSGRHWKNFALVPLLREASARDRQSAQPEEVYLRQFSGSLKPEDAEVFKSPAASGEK
Chain of TRPV1-Luc/YFP-CaM (Q8NER1 whole entry): as above
T2 sequence (Q9HBA0 whole entry): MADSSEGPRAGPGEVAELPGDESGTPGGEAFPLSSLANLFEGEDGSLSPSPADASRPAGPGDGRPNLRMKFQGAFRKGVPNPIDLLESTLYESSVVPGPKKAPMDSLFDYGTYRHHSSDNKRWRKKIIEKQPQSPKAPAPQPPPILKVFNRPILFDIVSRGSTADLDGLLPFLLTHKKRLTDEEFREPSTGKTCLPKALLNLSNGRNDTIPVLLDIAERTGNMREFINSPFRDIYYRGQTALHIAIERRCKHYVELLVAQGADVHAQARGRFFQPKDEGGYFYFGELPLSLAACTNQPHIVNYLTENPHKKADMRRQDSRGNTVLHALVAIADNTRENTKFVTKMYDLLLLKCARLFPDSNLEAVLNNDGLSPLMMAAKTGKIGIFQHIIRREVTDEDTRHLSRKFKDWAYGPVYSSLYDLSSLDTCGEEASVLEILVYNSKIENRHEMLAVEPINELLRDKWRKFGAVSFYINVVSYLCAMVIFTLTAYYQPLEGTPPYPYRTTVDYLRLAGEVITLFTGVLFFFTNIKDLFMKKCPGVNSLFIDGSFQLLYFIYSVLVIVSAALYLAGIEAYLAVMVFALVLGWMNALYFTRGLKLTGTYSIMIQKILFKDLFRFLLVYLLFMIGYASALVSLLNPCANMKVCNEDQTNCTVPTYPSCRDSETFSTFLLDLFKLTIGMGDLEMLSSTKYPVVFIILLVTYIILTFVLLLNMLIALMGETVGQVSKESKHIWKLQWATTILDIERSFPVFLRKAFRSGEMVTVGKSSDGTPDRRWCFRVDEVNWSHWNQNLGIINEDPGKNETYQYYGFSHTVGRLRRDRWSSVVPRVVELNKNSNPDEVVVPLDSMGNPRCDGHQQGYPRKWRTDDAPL
Chain of TRPV1-Luc (human; Renilla) (Q8NER1 whole entry): as the sequence (Q8NER1 whole entry) above
T3 sequence (Q8NER1 whole entry): as above
Chain of YFP-hTRPV3-rLuc (Q8NET8 whole entry): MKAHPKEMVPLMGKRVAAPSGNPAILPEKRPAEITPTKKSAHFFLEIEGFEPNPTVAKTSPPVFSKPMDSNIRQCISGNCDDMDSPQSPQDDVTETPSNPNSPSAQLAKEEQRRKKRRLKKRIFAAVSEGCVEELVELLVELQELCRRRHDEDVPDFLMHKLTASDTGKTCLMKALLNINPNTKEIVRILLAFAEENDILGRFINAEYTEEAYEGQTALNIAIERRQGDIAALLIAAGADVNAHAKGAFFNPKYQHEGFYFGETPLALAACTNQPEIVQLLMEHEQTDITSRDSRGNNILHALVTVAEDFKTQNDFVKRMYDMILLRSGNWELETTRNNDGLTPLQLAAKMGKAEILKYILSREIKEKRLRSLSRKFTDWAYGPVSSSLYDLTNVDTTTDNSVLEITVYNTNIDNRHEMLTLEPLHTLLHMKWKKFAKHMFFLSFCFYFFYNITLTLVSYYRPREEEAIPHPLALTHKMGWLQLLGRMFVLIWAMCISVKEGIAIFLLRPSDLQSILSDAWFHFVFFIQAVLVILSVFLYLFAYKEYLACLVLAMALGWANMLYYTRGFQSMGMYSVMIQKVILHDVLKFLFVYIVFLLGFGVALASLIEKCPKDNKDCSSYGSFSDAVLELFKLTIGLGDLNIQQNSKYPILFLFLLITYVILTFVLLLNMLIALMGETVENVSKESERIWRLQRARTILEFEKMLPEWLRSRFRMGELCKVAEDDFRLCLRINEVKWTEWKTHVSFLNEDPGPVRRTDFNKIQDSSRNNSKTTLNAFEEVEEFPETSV

For the compound `c1ccc(C2(c3ccccc3)CCCO2)cc1` [2,2-Diphenyltetrahydrofuran], the “temperature at which BRET signal plateaued” value at YFP-hTRPV1-rLuc [1] (setting [5]) came out at 52 °C. The “ratio of net BRET as initially measured at 29.5° C.” value on YFP-hTRPV1-rLuc [1] (setting [6]) was 0.93.
As for `NCCOB(c1ccccc1)c1ccccc1` [2-APB, 2-Aminoethyl diphenylborinate], the “evolution of the BRET signal after addition to the culture media” value at YFP-hTRPV3-rLuc was “increase in the BRET value within seconds”.
For `CCCCCCCCC(=O)NCc1cc(OC)c(O)cc1I` [6 iodo-CAPS], on YFP-hTRPV1-rLuc [1] (setting [5]), the “temperature from which BRET signal decreased” value stood at 48 °C. Moreover, the “ratio of net BRET as initially measured at 29.5° C.” value at YFP-hTRPV1-rLuc [1] (setting [6]) came to 0.28.
`CC(=O)Nc1nc2c(Oc3cc(-c4ccc(C(F)(F)F)cc4)ncn3)cccc2s1` [AMG517]: the “effect on the CAPS dose response curve” value at TRPV1-Luc/YFP-CaM and on YFP-hTRPV1-rLuc [1] was “right shift” throughout. Besides, at TRPV1-Luc/YFP-CaM (cells preincubated with inhibitor, temperature increased from 25° C. to 50° C.), the “temperature-induced BRET increase” value was “no significant BRET increase”. The “effect on the capsaicin dose-response curve” value on YFP-hTRPV1-rLuc [1] is “right-shift”.
Take `Oc1cc2c(cc1O)CN(C(=S)NCCc1ccc(Cl)cc1)CCC2` [Capsazepine]: the “effect on the CAPS dose response curve” value on TRPV1-Luc/YFP-CaM was “right shift”. Also, the “temperature where BRET signal started to decrease” value on YFP-hTRPV1-rLuc [1] (1 μM CPZ, medium heated from 25° C. to 50° C.) was found to be 47 °C. At YFP-hTRPV1-rLuc [1], the “effect on the CAPS dose response curve” value is on record as “right shift” and the “effect on the capsaicin dose-response curve” value is on record as “right-shift”.
The compound `CC(C)C[C@H](NC(=O)c1cc2ccccc2s1)C(=O)N1CCN(C(=O)[C@H](CO)NS(=O)(=O)c2ccc(Cl)cc2Cl)CC1` [GSK1016790A] showed an EC50 at TRPV4-Luc/YFP-CaM (control condition (absence of Ruthenium Red), log value) of 12.9 µM.
Turning to `N.N.N.N.N.N.N.N.N.N.N.N.N.N.[Cl-].[Cl-].[Cl-].[Cl-].[Cl-].[Cl-].[O-2].[O-2].[Ru+3].[Ru+3].[Ru+4]` [Ruthenium Red], the “BRET increase induced by the TRPV4 agonist GSK1016790A” value at TRPV4-Luc/YFP-CaM (Ruthenium Red 10 μM) is reported as “No BRET increase”.
As to `COc1cc(CNC(=O)CCCC/C=C/C(C)C)ccc1O` [capsaicin], the “intracellular calcium (Fura 2, I340/I380)” value in assay [2] was “No calcium increase”; on wild-type TRPV1 it was “rapid and important increase of intracellular calcium”; on YFP-hTRPV1-rLuc [3], “rapid and important increase of intracellular calcium”. Also, the results for the “time constant (Tau) of BRET increase” value at TRPV1-Luc/YFP-CaM (after CAPS injection) and at YFP-hTRPV1-rLuc [1] (after CAPS injection) were 27 s and 2 s, respectively. Besides, the “BRET over the basal signal following exposure” value is “robust increase of BRET” on TRPV1-Luc/YFP-CaM (kinetic, HEK293T cells) and “robust increase of BRET” at YFP-hTRPV1-rLuc [1] (kinetic, HEK293T cells). The “effect of temperature rise on capsaicin dose response” value on TRPV1-Luc/YFP-CaM (setting [7]) and on YFP-hTRPV1-rLuc [1] (setting [7]) was “leftward shift of the power of capsaicin while the efficacy remained unchanged” throughout.
In assay [4], YFP-CaM (from UniProt P0DP23 1-149) displayed a time constant of the BRET increase after capsaicin of 27 s.
